Laboratory results reported in patent publication US20240198337A1, “Bone Marrow on a Chip” (NEW YORK UNIVERSITY, priority 2021, published 2024).

How the values were obtained:
murine B-ALL cells [1] = test: Combinational drug regimens in the murine leukemic niche model; format: cell-based; details: 5 μg/mL AMD, 1 μg/mL BIO or 10 μM BAY combined with NIL, PRE or VCR for 48 hr
Method: The 3D biomimetic leukemic niche model was exploited to test the combinational drug regimens in vitro. Generally, the murine leukemic niche models were cultured for 24 hr after fabrication, then respectively administrated with various pharmaceuticals [i.e. 5 μg/mL AMD3100 (AMD), 1 μg/mL BIO5192 (BIO), and 10 μM BAY 11-7082 (BAY), correspondingly], and concomitantly treated with 1 μM NIL, 1 μM PRE or 0.1 μM VCR for 48 hr. The viability of B-ALL cells was measured by the DAPI staining as described above.
The following investigation concerned whether co-targeting niche-derived pro-survival signals (CXCR4/CXCL12, VCAM-1/VLA-4, and NF-κB signaling) using either CXCR4 inhibitor (AMD), VLA-4 inhibitor (BIO), or NF-κB inhibitor (BAY) could improve the responsiveness of B-ALL-targeting chemotherapeutics. B-ALL blasts and niche cells (containing ECs and MSCs) were co-cultured for 24 hr in the Leukemia-on-a-Chip, and then administered individual niche-targeting compounds in combination with either NIL, PRE or VCR for 48 hr, after which B-ALL cell viability was measured. […] The lack of response to VLA-4 treatment may be due to VLA-4 blockade broke the leukemia dormancy to compensate the B-ALL death.

NF-κB = NF-κB activation (nuclear translocation) in B-ALL cells in Leukemia-on-a-Chip; format: cell-based, murine; details: B-ALL cells with niche cells
From the text: FIG. 8A through FIG. 8J depicts the results of niche cells promoting leukemia progression via cytokine and adhesive signaling. (FIG. 8A) The regional CXCR4 distribution on murine B-ALL cells cultured with or without niche cells. (FIG. 8B) The quantified result corresponding to (FIG. 8A). (FIG. 8C) Membrane-based ELISA analysis of CXCL12 expression level of niche cells (ECs and MSCs). (FIG. 8D) The quantified result corresponding to (FIG. 8C). (FIG. 8E) The representative image showing B-ALL cells co-localized with niche cells via VCAM-1/VLA-4 signaling. (FIG. 8F) The representative images showing nuclear translocation of NF-κB in B-ALL cells. (FIG. 8G) NF-κB activation in B-ALL cells with or without niche cells and under treatments with CXCR4 inhibitor, AMD3100 (AMD) and VLA-4 inhibitor, BIO5192 (BIO). The ratios were manually quantified from 3 experimental replicates (N>200). One-way ANOVA followed by Tukey's post hoc test. […] (FIG. 8I) The quantification of NF-κB activation in human NALM-6, 697, RS(4; 11), and UOCB1 blasts within their leukemia niches. The ratios were manually measured from 3 experimental replicates (N>150). (FIG. 8J) The quantification of NF-κB activation in patient-derived B-ALL blasts within engineered leukemia niches. The ratios for various B-ALL blasts were manually measured from 3 technical replicates (N>20). […]

murine Ph+ B-ALL cells [2] = test: Drug resistance testing: B-ALL cell viability in 3D hydrogel devices (Calcein-AM/DAPI); format: cell-based; details: NIL 1 μM, PRE 1 μM, VCR 0.1 μM; for viability of B-ALL cells in perivascular versus endosteal niche: 2-day treatment; for B-ALL eradication (viability): absence of niche cells; for B-ALL eradication (viability) / B-ALL drug-induced cell death (chemo-resistance): 48 hr; for B-ALL drug-induced cell death (chemo-resistance): presence of niche cells
Method: The outcome of drugs was defined by the viability of B-ALL cells as a cytotoxic end point after drug treatment. B-ALL cells were cultured alone or co-cultured with niche cells in 3D hydrogel devices for 24 hr, and then incubated with 1 μM nilotinib (NIL, Cayman Chemical), 1 μM prednisone (PRE, Sigma), and 0.1 μM vincristine (VCR, Sigma) for 48 hr. The cell viability was quantitatively determined by using Calcein-AM (Thermo Fischer Scientific) and DAPI, which respectively stained the live and dead cells. Briefly, cells were rinsed thrice with PBS and incubated with Calcein-AM and DAPI ([…] and 5 μg/mL in PBS or medium) solution for 30 min at 37° C., followed by a final rinse with PBS. Afterward, cells were observed under a fluorescence microscope, and cellular viability was quantitatively measured by counting the number of objects in the green (live cells) and red (dead cells) channels. Untreated groups of B-ALL cells were used as controls to benchmark the drug resistance of different groups.

murine Ph+ B-ALL cells [3] = test: as above; format: cell-based; details: NF-κB blockade
murine B-ALL cells [4] = test: B-ALL cell adhesion onto niche cells with or without adhesion blockade; format: cell-based; details: VLA-4 blockade; 24 hours on niche cell monolayer
Method: (FIG. 11A) Experimental setup for testing murine B-ALL cell adhesion onto niche cells [i.e. ECs (C166), MSCs (OP9), and osteoblasts (MC3T3)] with or without adhesion blockade. B-ALL cells were plated into the dishes with niche cell monolayer and cultured for 24 hours, followed by five times washing with warm PBS. The images were then taken with 20× objective. (FIG. 11B) Adhered B-ALL cells were manually counted and plotted as cell number per filed. Each condition has 3 replicates with >10 images being counted. One-way ANOVA followed by Tukey's post hoc test (n.s., not significant, *p<0.05, **p<0.01).

SMILES | responsiveness of B-ALL blasts to tumor-targeting agents (B-ALL killing) on niche co-targeting (murine B-ALL cells [1]) | nuclear translocation of NF-κB in B-ALL cells (NF-κB) | viability of B-ALL cells in perivascular versus endosteal niche (murine Ph+ B-ALL cells [2]) | B-ALL eradication (viability) (murine Ph+ B-ALL cells [2]) | B-ALL drug-induced cell death (chemo-resistance) (murine Ph+ B-ALL cells [2]) | also measured
c1cc(CN2CCCNCCNCCCNCC2)ccc1CN1CCCNCCNCCCNCC1 [AMD3100] | significantly reversed the chemo-protective activity of niche cells | suppressed the nuclear translocation of NF-κB in B-ALL cells | – | – | – | –
C[C@]12C=CC(=O)C=C1CC[C@@H]1[C@@H]2C(=O)C[C@@]2(C)[C@H]1CC[C@]2(O)C(=O)CO [prednisone] | – | – | a stronger dormancy and chemo-resistance of B-ALL cells in the endosteal niche | efficient B-ALL eradication | chemo-resistance phenomenon was confirmed | B-ALL drug-induced cell death (chemo-resistance) (murine Ph+ B-ALL cells [2]; listed as PRE): partial rescue of drug-induced cell death
Cc1cn(-c2cc(NC(=O)c3ccc(C)c(Nc4nccc(-c5cccnc5)n4)c3)cc(C(F)(F)F)c2)cn1 [nilotinib] | – | – | a stronger dormancy and chemo-resistance of B-ALL cells in the endosteal niche | efficient B-ALL eradication | chemo-resistance phenomenon was confirmed | B-ALL drug-induced cell death (chemo-resistance) (murine Ph+ B-ALL cells [2]; listed as NIL): partial rescue of drug-induced cell death
Cc1ccc(S(=O)(=O)/C=C/C#N)cc1 [BAY 11-7082] | significantly reversed the chemo-protective activity of niche cells | – | – | – | – | B-ALL survival (cell viability) (murine Ph+ B-ALL cells [3]; absence of niche cells): significantly decreased B-ALL survival; B-ALL survival (cell viability) (murine Ph+ B-ALL cells [3]; co-culture with niche cells): partially rescued B-ALL cell survival from BAY treatment
Cc1ccccc1NC(=O)Nc1ccc(CC(=O)N(C)[C@@H](CC(C)C)C(=O)NCC[C@H](NC(=O)[C@@H]2CCCN2S(=O)(=O)c2cc(Cl)cc(Cl)c2)C(=O)O)cc1 [BIO5192] | no significant effect on the responsiveness of B-ALL blasts to tumor-targeting agents | suppressed the nuclear translocation of NF-κB in B-ALL cells | – | – | – | intercellular adhesion of B-ALL cells onto niche cells (murine B-ALL cells [4]): significantly decrease the intercellular adhesion of B-ALL cells onto niche cells
